Measurements reported in patent publication US20140121235A1, “Method for Treating S6K-Overexpressing Cancers” (Rush University Medical Center, priority 2012, published 2014).
Entries after “also recorded” stand apart in the source; their conditions may differ.

Experiments:
[1] = system: Raf-1 phosphorylation; assay: Western blot of Raf-1 phosphorylation in A375 cells; type: cell-based
Experimental: (§1) A375 cells seeded in a 6-well plate were starved in DMEM medium containing 0.5% FBS for 2 hr and treated with the indicated concentration of A77 1726 or PLX 4720 (1 μM) for another 2 hr (A) or treated with A77 1726 (100 μM) for the indicated time (B & C). Cells were harvested and analyzed for protein phosphorylation by specific antibodies as indicated. Protein loading was monitored by stripping membrane and re-probing with antibodies against non-phosphorylated proteins. (D) Uridine fails to reverse the effect of A77 1726 on the PI-3 and MAP kinase pathways. A375 cells seeded in a 6-well plate were starved in DMEM medium containing 05% FBS for 2 hr and treated with the indicated concentration of A77 1726 in the absence or presence of uridine (200 μM). Phosphorylated and total proteins were analyzed by Western blot as described above.
Cells grown in 6-well plates were harvested and lysed in NP-40 lysis buffer (50 mM Tris-HCI (pH 8.0), 150 mM NaCl, 1% NP-40, 5 mM EDTA, 10 μg/ml aprotinin, 10 μg/ml leupeptin, and 1 mM phenylmethylsulfonyl fluoride). After incubation on ice for 30 min, the cell lysates were prepared by spinning down at 4° C., 15,000 rpm for 15 min. […]

[2] = system: ERK1/2^T202/Y204 and MEK1/2^S217/S221 phosphorylation; assay: Western blot of MAP kinase pathway phosphorylation in A375 cells; type: cell-based; settings: A375 cells starved in 0.5% FBS; A77 1726 or leflunomide at indicated concentrations, 2 hr
Experimental: as §1, with “(D) Uridine fails to reverse the effect of A77 1726 on the PI-3 and MAP kinase pathways.” left out
A375 cells seeded in 6-well plates were starved in DMEM medium containing 0.5% FBS for 2 hr and then pre-treated with vehicle (0.1% dimethyl sulfoxide), LY294002 (10 μM) (A), PPP (1 μM) (B), or the inhibitors of the MAP kinase pathway (PLX4720, 1 μM; U0126, 10 μM; PD98059, 10 μM) (C) for 1 hr. Cells were then treated with A77 1726 (100 μM) or rapamycin (20 nM) as indicated for 2 hr. Cells were harvested and analyzed for protein phosphorylation by specific antibodies as indicated. Protein loading was monitored by stripping membrane and re-probing with antibodies against non-phosphorylated proteins.
Cells grown in 6-well plates were harvested and lysed in NP-40 lysis buffer (50 mM Tris-HCI (pH 8.0), 150 mM NaCl, 1% NP-40, 5 mM EDTA, 10 μg/ml aprotinin, 10 μg/ml leupeptin, and 1 mM phenylmethylsulfonyl fluoride). After incubation on ice for 30 min, the cell lysates were prepared by spinning down at 4° C., 15,000 rpm for 15 min. After electrophoresis and transfer to Immobolin membrane, proteins of interest were probed with their specific antibodies, followed by horseradish peroxidase-conjugated goat anti-rabbit IgG and SuperSignal Western Pico enhanced chemiluminoscence substrate (Pierce Chemical Co., Rockford, Ill.).
The PI-3 and MAP kinase pathways play an important role in cell proliferation, differentiation, and cell cycle progress. Multiple genes in these two pathways are frequently mutated and have a commanding role in driving tumorigenesis and tumor cell proliferation (2; 3). […] Here we tested whether A77 1726 affected the activation of MAP and PI-3 kinase pathways. A375 cells grown in 6-well plates were starved in the media containing 0.5% FBS for 2 hr and then treated with the indicated concentration of A77 1726. […] We next explored the effect of A77 1726 in phosphorylation of the molecules in the PI-3 kinase pathway.

[3] = system: MCF-7 cells; assay: Western blot of protein phosphorylation in MCF-7 cells; type: cell-based
Experimental: (A) A77 1726 induces MAP kinase activation in A375 cells cultured in 10% fetal bovine serum. A375 cells were seeded in a 6-well plate overnight and then stimulated with various concentrations of A77 1726 or PLX 4720 (1 μM) for 2 hr. Cells were harvested and analyzed for MAP kinase activation by anti-phospho-ERK1/2 antibody. The membrane was stripped and re-probed with anti-ERK1/2 antibody. (B) Lack of the feedback activation of the MAP and PI-3 kinase pathways in BT-20 cells. BT20 cells seeded in 6-well plates were starved in DMEM medium containing 05% EBS for 2 hr and treated with A77 1726 (0, 50 or 100 μM), Cells were harvested and analyzed for protein phosphorylation by specific antibodies as indicated. Protein loading was monitored by stripping membrane and re-probing with antibodies against non-phosphorylated proteins. (C) Strong feedback activation of the PI-3 kinase pathway and weak feedback activation of the MAP kinase pathway in MCF-7 cells by A77 1726 and rapamycin. […] Cells were harvested and analyzed for protein phosphorylation with the indicated antibodies. […] Cells were harvested and analyzed for protein phosphorylation by specific antibodies as indicated. Protein loading was monitored by stripping membrane and re-probing with antibodies against nonphosphorylated proteins. […]

[4] = rheumatoid arthritis patients treated with leflunomide 20 mg/day; cited from earlier work

C/C(O)=C(\C#N)C(=O)Nc1ccc(C(F)(F)F)cc1 [A77 1726]
effect on Raf-1 phosphorylation [1]: no increased Raf-1 phosphorylation; also recorded: had no effect
effect on ERK1/2 and MEK phosphorylation [2]: rapidly and potently induced; also recorded: strongly induced
effect on ERK phosphorylation [3]: slightly induced
effect on S6^S235/236 phosphorylation [3]: Inhibition
plasma concentration of A77 1726 [4]: ≤ 200 µM
